Measured values reported in PMC12650265 (The Journal of Experimental Medicine, 2025).
Entries after “also recorded” stand apart in the source; their conditions may differ.

Columns and labels:
[1] = target: T1, hMR1 protein (Homo sapiens, UniProt Q95460); assay: fluorescence polarization–based cell-free assay, competition with JYM20 for MR1 binding; conditions: 50% inhibition of 10 nM JYM20 binding to 100 nM empty hMR1, 37°C; three independent experiments in triplicate
T1 construct: plasmids encoding for the extracellular domains of MR1, β2m, and the AF-7 TCRα and TCRβ chains; made in house; host or cells: Escherichia coli BL21(DE3)

[2] = tested on: soluble WT MR1; assay: fluorescence-based thermal shift (thermostability) assay of MR1–ligand complexes; assay type: binding, human; conditions: MR1 refolded with the ligand; SYPRO Orange, 28 to 95°C; three independent experiments; listed as MR1-Lumichrome
[3] = tested on: T2, human MR1–β2-microglobulin (β2m) complex; assay: refolding of recombinant MR1-β2m with ligand; assay type: binding; conditions: ligand added to refolding buffer; gel filtration and SDS-PAGE
T2 construct: plasmids encoding for the extracellular domains of MR1, β2m, and the AF-7 TCRα and TCRβ chains; made in house

[4] = tested on: T3, MR1^R9H; assay: refolding of MR1^R9H with ligand in solution; assay type: binding, human
T3 construct: plasmids encoding for the extracellular domains of MR1, β2m, and the AF-7 TCRα and TCRβ chains; made in house
Text: (§1) We then tested the effect of the RF catabolites on the expression of two mutant versions of MR1 termed MR1^R9H ([Howson et al., 2020]) and MR1^K43A ([Reantragoon et al., 2013]). First, we tested the MR1^R9H mutant ([Howson et al., 2020]), which represents a rare, natural human polymorph. […] We used C1R.MR1^R9H cells, which are produced by stable transduction of wild-type C1R cells, which express low levels of wild-type MR1, with a vector expressing the MR1^R9H mutant ([Howson et al., 2020]). […] When C1R. […] Next, we sought to understand how the previously characterized K43A mutation affects ligand binding.
Escherichia coli BL21(DE3) cells were transformed with plasmids encoding for the extracellular domains of MR1, β2m, and the AF-7 TCRα and TCRβ chains ([Kjer-Nielsen et al., 2012]; [Patel et al., 2013]; [Wang et al., 2022a]). The proteins were then expressed, and the inclusion bodies were purified, cleaned, and used for refolding. For both MR1 and AF-7 TCR, inclusion bodies were refolded through rapid dilution overnight as previously mentioned ([Keller et al., 2017]). To refold MR1 with ligands, 58 mg MR1 inclusion bodies along with 30 mg of β2m inclusion bodies were placed in 500 ml of refold buffer consisting of 0.1 M Tris, pH 8.0, 5 M of urea, 2 mM EDTA, 2.5 mM oxidized glutathione, 20 mM reduced glutathione, and 0.4 M of L-arginine for 16 h at 4°C. […]

[5] = tested on: T4, surface MR1*01 on C1R.MR1 cells; assay: quantification of cell surface MR1 by flow cytometry, C1R.MR1 cells; assay type: cell-based, human
T4 construct: expressed in transfected cells; host or cells: C1R B lymphoblastoid cells transduced with MR1*01

[6] = tested on: T5, MR1 on PBMC-derived B lymphocytes; assay: MR1 surface expression on primary B cells; assay type: cell-based; conditions: primary human B cells, 16 h, highest doses, with or without 5-OP-RU
T5 construct: we also measured MR1 on the surface of cells expressing wild-type levels of MR1; endogenous in cells; host or cells: PBMC-derived B lymphocytes from healthy human donors

[7] = tested on: T6, folded MR1 in C1R.MR1 cells; assay: intracellular total folded MR1 by flow cytometry (8F2.F9); assay type: cell-based, human; conditions: 16 h, 100 µM
T6 construct: expressed in transfected cells; host or cells: C1R B lymphoblastoid cells transduced with MR1*01

[8] = tested on: T7, MR1^K43A on C1R.MR1^K43A cells; assay: cell surface MR1^K43A by flow cytometry; assay type: cell-based, human
T7 construct: expressed in transfected cells; host or cells: C1R cells overexpressing MR1^K43A
Text: as §1
The level of MR1 expressed on the cell surface was measured after the exposure to the investigated ligands as previously described ([Awad et al., 2020a]; [Wang et al., 2022a]). C1R Ag-presenting B lymphocytes overexpressing MR1*01 (C1R.MR1), MR1^K43A mutant (C1R.MR1^K43A), MR1^R9H mutant (C1R.MR1^R9H), or HLA-A*02:01 (C1R-A2), in addition to the monocytic THP-1-MR1 cells, were used in this study. 2 × 10^5 cells were incubated with RF catabolites for 3 or 16 h at 37°C and 5% CO2 in 200 μl folate-free RPMI 1640 medium from Gibco (Cat. No. 11875-093) fortified with 10% fetal bovine serum, sodium pyruvate (1 mmol/L), HEPES buffer (15 mmol/L), pH 7.2–7.5, 2% penicillin (100 U/ml), streptomycin ([…]), GlutaMAX (2 mmol/L), nonessential amino acids (0.1 mmol/L) (all from Thermo Fisher Scientific, Life Technologies), and 2-mercaptoethanol ([…], Sigma-Aldrich) (RF-10). After incubation, the cells were first stained with Zombie Aqua Fixable Viability Kit from BioLegend (Cat. No. 423102) and then incubated with biotinylated 8F2F9 αMR1 antibody for 30 min on ice. The unbound antibody was then washed off with 2% fetal bovine serum/PBS (called 2% FACS hereafter) buffer. The cells were finally incubated with PE-conjugated streptavidin (30 μg/ml; BioLegend) and then washed with 2% FACS buffer. The PE fluorescence intensity reflects the surface MR1 level. The data were acquired with LSRFortessa X-20 (BD Biosciences) and Diva software (BD Biosciences) and analyzed using FlowJo software (BD Biosciences).

[9] = tested on: SKW-3 cells expressing MAIT TCR AF-7; assay: SKW-3 reporter T cell activation (CD69), coculture with C1R.MR1; assay type: cell-based
Protocol: (§2) Given the intracellular MR1 retention induced by the RF catabolites, we anticipated that these ligands could influence the activity of MR1-reactive T cells. First, we utilized a system whereby reporter SKW-3 T cell lines were cocultured with C1R.MR1 APCs and activation was determined by CD69 expression. […] In contrast, SKW-3-MBV28 cells were inhibited by alloxazine but activated by lumichrome (Fig. S3, D–F). Two MR1-restricted TRAV1-2^−ve SKW-3 T cell lines were also tested.
(§3) C1R.MR1 cells (1 × 10^5) were initially stained with CTV (Thermo Fisher Scientific) for 15 min and then incubated with RF catabolites for 20 h. […] Cells were subsequently stained with PE-Cy7-conjugated anti-CD69 (1:100; BD Biosciences) and PE-labeled anti-MR1 (1:100, clone 26.5; BD Biosciences), before analysis on a LSRFortessa (BD Biosciences) flow cytometer. Activation of the SKW-3 cells was reflected by the cell surface CD69 expression.

[10] = tested on: SKW-3 cells expressing MAIT TCR MBV28; assay: as above; assay type: cell-based; conditions: SKW-3-MBV28, in the presence of 5-OP-RU
Protocol: as §2, §3

[11] = tested on: SKW-3-DGB129 line; assay: as above; assay type: cell-based; conditions: SKW-3-DGB129 cocultured with C1R.MR1
Protocol: as §2, §3

[12] = tested on: SKW-3-MAV36 line; assay: as above; assay type: cell-based; conditions: SKW-3-MAV36, in the presence of 5-OP-RU
Protocol: as §2, §3

[13] = tested on: CD3^+ MR1-5-OP-RU tetramer^+ MAIT cells; assay: MAIT cell proliferation in CTV-labeled PBMCs; assay type: cell-based, human; conditions: 7-day culture, 5-OP-RU 10 µM, others 100 µM
[14] = tested on: MAIT cells from PBMCs; assay: primary MAIT cell activation in PBMCs (CD69, TNF); assay type: cell-based, human; conditions: 18 h, in the presence of 5-OP-RU or 5-A-RU
[15] = tested on: MAIT and TRAV1-2^−ve cells from PBMCs; assay: TCR-independent or bead stimulation of PBMCs (PMA and ionomycin, αCD3/αCD28 beads); assay type: cell-based, human; conditions: PBMCs preincubated, then αCD3- and αCD28-coated beads
[16] = tested on: Vγ9Vδ2 T cells; assay: Vγ9Vδ2 T cell activation by zoledronate in PBMCs; assay type: cell-based, human; conditions: PBMCs titrated with ligand in the presence of zoledronate

IC50 [1]: 12.5 µM
Compound: Cc1cc2nc3[nH]c(=O)[nH]c(=O)c3nc2cc1C [Lumichrome, 7,8-dimethylalloxazine]
Tm50 (half-maximum melting temperature), Mean ± SD [2]: 49.89 ± 0.33 °C
folding of the MR1-β2m cocomplex in solution [3]: facilitated the correct folding of the MR1-β2m cocomplex
refolding with MR1^R9H [4]: did not refold with MR1^R9H in solution; also recorded: unable to refold
MR1 cell surface expression ([5]; C1R.MR1 cells, 3 h, 1–200 µM, 8F2F9 antibody): reduced MR1 cell surface
rank as downregulator of MR1 cell surface expression ([5]; overall: lumichrome, then alloxazine, lumiflavin, FMF): most potent downregulator
MR1 surface expression [6]: reduced MR1 surface expression
total level of folded MR1 (intracellular staining with 8F2.F9) [7]: increased the total level of folded MR1
MR1^K43A at the cell surface ([8]; 3 h): increased MR1^K43A at the cell surface
MR1^K43A at the cell surface ([8]; 16 h): MR1 upregulation continues
reactivity to 5-OP-RU (CD69) ([9]; SKW-3-AF-7, in the presence of 1 nM 5-OP-RU): enhanced activation
reactivity to RL-7-Me (CD69) ([9]; SKW-3-AF-7, in the presence of 100 nM RL-7-Me): inhibited in a dose-dependent manner
reactivity to 5-OP-RU (CD69) [10]: activated
reactivity of MR1 autoreactive, nucleobase-adduct reactive line (CD69) [11]: inhibited
reactivity to 5-OP-RU (CD69) [12]: inhibited
MAIT cell proliferation [13]: significantly reduced MAIT cell proliferation
MAIT cell inhibition (CD69 MFI, % CD69^+, TNF production) [14]: most potent competitor showing the strongest MAIT cell inhibition
CD69 upregulation by MAIT or TRAV1-2^−ve cells [15]: not reduced
Vγ9Vδ2 T cell activation induced by zoledronate (% CD69^+ Vδ2^+) [16]: did not interfere
